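48-hour exposure; five concentrations; linearly interpolated endpoints. TGI: total growth inhibition.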
Legend:
Experiment in all cases: NCI anticancer screen, dose series, 48 h
OVCAR-5 ovarian = system: OVCAR-5 ovarian
HL-60(TB) leukemia = system: HL-60(TB) leukemia
SNB-19 CNS = system: SNB-19 CNS
CAKI-1 renal = system: CAKI-1 renal
UO-31 renal = system: UO-31 renal
MDA-MB-231 breast = system: MDA-MB-231 breast
MDA-MB-435 = system: MDA-MB-435
MDA-N = system: MDA-N

SMILES	TGI (OVCAR-5 ovarian) [µM]	TGI (HL-60(TB) leukemia) [µM]	TGI (SNB-19 CNS) [µM]	TGI (CAKI-1 renal) [µM]	TGI (UO-31 renal) [µM]	TGI (MDA-MB-231 breast) [µM]	TGI (MDA-MB-435) [µM]	TGI (MDA-N) [µM]
COc1ccc(OC2OC(COC(c3ccccc3)(c3ccc(OC)cc3)c3ccc(OC)cc3)C(O)C(O)C2O)cc1 (stereo not drawn)	20.7	7.59	26.7	16.2	4.79	18.1	13	17.2
N#Cc1cc(-c2nc3c(F)cccc3s2)ccc1N	> 100	> 100	> 100	> 100	> 100	> 100	> 100	> 100
COc1ccc(C2=NN(C(N)=S)C(c3ccccc3)C2)cc1 (stereo not drawn)	> 100	52.9	> 100	> 100	> 100	–	> 100	> 100
O=C(c1ccccc1)N1OCCC1Nc1ccc(Br)cc1 (stereo not drawn)	> 10	> 10	> 10	> 10	8.81	> 10	> 10	> 10
Nc1[nH]c(=S)c2c(N)n[nH]c2c1C(=O)Nc1ccccc1	> 100	> 100	> 100	> 100	> 100	> 100	> 100	> 100
O=C(Nc1ccccc1)n1[nH]c(=O)n(-c2ccccc2)c1=O	–	> 100	> 100	> 100	> 100	> 100	> 100	> 100
NC1CC(Cl)c2c(Cl)sc(Cl)c21 (stereo not drawn)	> 100	> 100	–	> 100	> 100	> 100	> 100	> 100
CC1(C)C/C(=N/O)c2c(nc3ccc4ccccc4c3c2-c2ccc(Cl)cc2)C1	> 100	26.1	> 100	26.3	43.5	24.4	> 100	> 100
CC1OC(OC2C(OC(=O)[C@@H]3CC(C)(C)C[C@@H]4C5=CC[C@@H]6[C@@]7(C)C[C@H](O)[C@H](OC8OC(CO)C(O)C(O)C8O)[C@@](C)(CO)C7[C@H](O)C[C@@]6(C)[C@]5(C)C[C@@H](O)[C@H]43)OCC(O)C2O)C(O)C(O)C1O (stereo partly drawn)	> 15	> 15	> 15	> 15	> 15	> 15	> 15	–
C=CCc1ccccc1CC1(OCC)OC(=O)c2ccccc21 (stereo not drawn)	> 100	–	> 100	> 100	> 100	> 100	96.9	71.8
C[C@]12C[C@@H](c3ccccc3)Nc3ccccc3N1C(c1ccccc1)=NO2	> 100	71.9	> 100	> 100	89.5	> 100	58.5	68.7
CN1C(=O)C(c2c[nH]c3ccccc23)N(C)C(=O)C1c1c[nH]c2ccccc12 (stereo not drawn)	> 100	> 100	–	> 100	> 100	> 100	> 100	> 100
Cc1ccc(N(C(=O)Nc2ccc(F)c(Cl)c2)C2=NCC(C)S2)cc1 (stereo not drawn)	> 100	73.2	> 100	> 100	> 100	> 100	–	> 100
NC(=S)N/N=C1/CCCC2CCCC[C@@H]12 (stereo partly drawn)	> 100	> 100	> 100	> 100	> 100	> 100	> 100	> 100
CN(C)CCCNc1c(C#N)[n+]([O-])c2cc(Cl)ccc2[n+]1[O-]	> 100	30.3	> 100	> 51.8	> 46.3	37.2	> 67.2	> 59.9
CC(C)=c1sc(=C(C)C)c2c1=NC(C)(C)N=2	> 100	> 100	> 100	> 100	–	> 100	> 100	> 100
OC1[C@H](O)CN(OCc2ccccc2)C[C@@H]1O (stereo partly drawn)	> 100	> 100	> 100	> 100	> 100	> 100	> 100	> 100
Cc1ccc(/C=C2\CN(C)CC3C2=NN(c2ccccc2)C3c2ccc(C)cc2)cc1 (stereo not drawn)	–	–	> 100	> 100	> 100	> 100	> 100	> 100
NC(=O)C1Cc2cc3c(cc21)OCO3 (stereo not drawn)	> 100	–	> 100	> 100	> 100	> 100	–	> 100
CN(N)/N=N/c1nc[nH]c1[N+](=O)[O-]	> 100	12.2	–	40.9	> 100	60.9	> 100	> 100
O=S(Nc1ccccc1)c1ccc(Cl)c(Cl)c1 (stereo not drawn)	–	> 100	> 100	–	> 100	> 100	92.9	> 100
CN(C(=O)C1CCCCCC1=O)c1ccccc1Cl (stereo not drawn)	> 100	–	> 100	> 100	> 100	> 100	> 100	–
COc1ccc2c(c1)-c1[nH]c3ccc(OC)cc3c1CC2	28.6	–	30.1	34.8	31.4	35	40.2	30.2
Cc1ccc2c(c1)CC1(Cc3c(C)cccc3C1=O)C2=O (stereo not drawn)	> 100	> 100	> 100	–	> 100	> 100	> 100	> 100
COc1cccc(-c2nc3ccccc3c(=O)[nH]2)c1OC	> 100	–	> 100	> 100	> 100	> 100	> 100	> 100
C/C(=N\NC(=O)c1ccncc1)c1ccccc1F	> 10	> 10	> 10	> 10	> 10	–	–	> 10
Cc1ccc(C2SC(N)=Nc3c2c(C)nn3C(=O)c2ccccc2O)cc1 (stereo not drawn)	> 10	–	> 10	> 10	> 10	> 10	> 10	> 10

From PubChem BioAssay (NCI)
